Source: patent US20230270148A1, “BITTER BLOCKERS AND RELATED METHODS OF USE” (Conagen Inc., priority 2020, published 2023)

Key:
[1] = tested on: peach-flavored energy drink (caffeine, B vitamins); assay: Sensory evaluation: bitterness reduction of a peach-flavored energy drink; assay type: in vivo; conditions: dosage per sample
Method: The bitterness blocker candidates listed in Table 1 were prepared into a 1% sample solution with propylene glycol and heated to ensure complete solubilization. […] A trained sensory evaluator was asked to estimate the perceived bitterness reduction against the control, as well as to provide comments on how the addition of the individual sample solution modulated the taste and mouth feel profile of the resulting peach-flavored energy drink.

dark roast coffee = assay: Sensory evaluation: bitterness reduction of dark roast coffee; assay type: in vivo; conditions: dosage 50 or 100 ppm per sample
Method: The bitterness blocker candidates listed in Table 1 were prepared into a 1% sample solution with propylene glycol and heated to ensure complete solubilization. […] A trained sensory evaluator was asked to estimate the perceived bitterness reduction against the control, as well as to provide comments on how the addition of the individual sample solution modulated the taste and mouth feel profile of the resulting dark roast coffee.

caffeine in water = assay: Two-alternative forced choice (2AFC) difference test; assay type: in vivo
Method: The bitter blocker candidates BB09, BB11, and BB13 were subject to a two-alternative forced choice (2AFC) difference test wherein panelists were presented Control Caffeine solutions and Test solutions containing caffeine and one of three bitterness blocker candidates (BB09, BB 11, or BB13). Panelists were asked to evaluate the two samples and answer the question, “which one is more hitter?”
BB09 and BB11 were tested first. Three ounces of control (caffeine in water), BB09 in caffeine water, and BB11 in caffeine water were presented at room temperature in separate plastic souffle cups labeled with 3-digit codes. Ten sensory trained panelists evaluated each sample in three repetitions with a 10 minute break between repetitions. Panelists then completed the 2AFC. Data was collected on EveQuestion and analyzed on XLSTAT. Testing was conducted at Sensations Research according to FEMA guidelines.
BB13 was tested separately. Two ounces of control (caffeine in water), BB13 in caffeine water were presented at room temperature in separate plastic souffle cups labeled with 3-digit codes. Fifteen participants evaluated each sample in two repetitions with a 10 minute break between repetitions for a total of thirty evaluations as per the FEMA guidelines. Panelists then completed the 2AFC to identify the more bitter sample. Data was collected and analyzed on Compusense.

[2] = tested on: bitter-responsive human taste bud tissue-derived cells (hTBEC); assay: ATP secretion detection assay (luminescence); assay type: cell-based
Method: (§1) The bitter blocker candidates were further characterized using bitter-responsive human taste bud tissue-derived cells (hTBEC) platforms and bioassays. Bitter-responsive hTBECs were treated with hitter blocker candidates and various bitter agonists to assess the efficacy of each bitter blocker candidate in reducing the bitterness of each of the various bitter agonists.
One industry standard bitter agonist was used as a control (L-Praziquantel), and five bitter blocker controls were used (Senomyx BB68, STX-001, sodium gluconate, eridictyol, and homoeridictyol).
BB09, BB11, and BB13 were first tested at various concentrations in combination with 100 μM Dextromethorphan-HBr.
Next, bitter blocker concentration ranges were narrowed (100 μM-1,000 μM) and compared to a fixed concentration of stimulus. […] BB13 was evaluated further by real time ATP secretion detection in pooled hTBEC 66 cells treated with 300 μM Theobromine.
Each culture was treated with BB09, BB11, BB13, STX001, or Senomyx BB68, as well as either Dextromethorphan-HBr at 1000 μM (FIGS. 18A-18C), Theobromine at 1,000 μM (FIGS. 19A-19C), Rebaudioside A at 1 mM (FIGS. 20A-20C), or Caffeine at 3 mM (FIGS. 21A-21C).

[3] = tested on: individual donor-derived hTBECs; assay: Cell calcium mobilization assay; assay type: cell-based, human
Method: as §1
Calcium mobilization response following treatment of 100 μM Dextromethorphan-HBr, 3000 μM Theobromine, and 3 mM Caffeine was evaluated in individual donor-derived hTBECs.

[4] = of thirty evaluations (15 participants, 2 repetitions)

What does the source list for O=C1C[C@@H](c2ccc(O)c(O)c2)Oc2c1c(O)cc(O)c2[C@@H]1O[C@H](CO)[C@@H](O)[C@H](O)[C@H]1O [BB13, Eriodictyol-8-C-β-glucoside]?
Comments [1]: Excellent bitter blocking; Comments (dark roast coffee): Very smooth with nice upfront; significance of bitterness difference control vs sample (caffeine in water; 90% and 95% confidence interval (FIG. 11)): control sample was significantly more bitter; panelists' description of samples (caffeine in water; blocker in caffeine water): initial sweetness that mask the bitterness, less lingering bitterness, and having a nutty taste; evaluations identifying the sample containing the blocker as more bitter (caffeine in water; [4]): three; evaluations selecting control as more bitter (caffeine in water; [4]): Twenty-seven; inhibition of luminescence signal from Dextromethorphan-HBr ([2]; 100 μM Dextromethorphan-HBr, blocker 100 μM-1,000 μM, upper concentrations, individual donor-derived hTBECs (FIG. 14A)): inhibited luminescence signal; inhibitory activity against Dextromethorphan-HBr (ATP secretion) ([2]; 100 μM Dextromethorphan-HBr, blocker 1 mM, all three hTBEC cultures (FIG. 22A)): consistently showed inhibitory activity; inhibition of luminescence activity of Dextromethorphan-HBr (ATP secretion) ([2]; 100 μM Dextromethorphan-HBr, various blocker concentrations (FIG. 12)): able to inhibit; inhibition of luminescence signal from L-Praziquantel ([2]; 400 μM L-Praziquantel, blocker 100 μM-1,000 μM, upper concentrations, individual donor-derived hTBECs (FIG. 14B)): inhibited luminescence signal; inhibitory activity against L-Praziquantel (ATP secretion) ([2]; 400 μM L-Praziquantel, blocker 1 mM, all three hTBEC cultures (FIG. 24)): consistently showed inhibitory activity; inhibition of the L-Praziquantel response (ATP secretion) ([2]; 400 μM L-Praziquantel, pooled donor-derived hTBEC (FIG. 13)): showed inhibition; inhibitory activity against Rebaudioside A (ATP secretion) ([2]; 1 mM Rebaudioside A, blocker 1 mM, all three hTBEC cultures (FIG. 23A)): consistently showed inhibitory activity; real time Rebaudioside A-induced ATP secretion ([2]; 1 mM Rebaudioside A, blocker 1,000 μM, pooled hTBEC 56 cultures (FIG. 17)): attenuated; inhibitory activity against Theobromine (ATP secretion) ([2]; 1,000 μM Theobromine, blocker 1 mM, all three hTBEC cultures (FIG. 22B)): consistently showed inhibitory activity; inhibitory activity against Caffeine (ATP secretion) ([2]; 3 mM Caffeine, blocker 1 mM, all three hTBEC cultures (FIG. 23B)): consistently showed inhibitory activity; inhibition of Rebaudioside A-induced ATP secretion ([2]; 3 mM Rebaudioside A, pooled hTBEC 56 cultures, blocker 100, 300 or 1,000 μM (FIG. 16)): strongest inhibition; inhibition of the bitter agonists (ATP secretion) ([2]; hTBEC 66, hTBEC 56, hTBEC Donor H, Dextromethorphan-HBr at 1000 μM, Theobromine 1,000 μM, Rebaudioside A 1 mM or Caffeine 3 mM (FIGS. 18-21)): most consistent inhibition; real time ATP secretion response to Theobromine ([2]; pooled hTBEC 66 cells, 300 μM Theobromine, blocker at 1 mM (FIG. 15)): attenuated the Theobromine-stimulated signal; inhibition of calcium mobilization induced by Dextromethorphan-HBr ([3]; 100 μM Dextromethorphan-HBr, blocker 0.3 μM to 1,000 μM, at high concentrations (FIG. 25)): inhibited calcium mobilization; inhibition of calcium mobilization induced by Caffeine ([3]; 3 mM Caffeine, blocker 1,000 μM, hTBEC 56 cells (FIG. 27)): inhibited calcium mobilization; inhibition of calcium mobilization induced by Theobromine ([3]; 3000 μM Theobromine, blocker 1 μM to 3,000 μM, at high concentrations (FIG. 26)): inhibited calcium mobilization
